Experimental findings from US10988477B2 (Merck Patent GmbH, priority 2018, dated 2021) are described below.

Where only a bound is given, the exact number is not on record here.

Assay [1] deals with intracellular GCN2 (phosphorylation of the GCN2 substrate eIF2α) (Homo sapiens, UniProt Q9P2K8). In words: GCN2 cellular inhibition assay (AlphaScreen SureFire P-eIF2α Ser51, borrelidin-treated U2OS cells). The settings on record: compounds of Formula IV; biomarker assay, phosphorylated eIF2α Ser51 in borrelidin-treated U2OS cells. Type of assay: cell-based. In short, it runs like this:
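Borrelidin at 10 μM is added to U2OS cells immediately after compound (4-fold dilution series, 40 μM top final) for 1 h at 37 °C. Phosphorylated eIF2α Ser51 in lysates is quantified by AlphaScreen and expressed as percent inhibition against borrelidin-stimulated controls.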
On the technique in general: Bead proximity is the source of the signal in Alpha formats.

For assay [2], the target named is GCN2 kinase (Homo sapiens, UniProt Q9P2K8). The assay can be described thus: GCN2 enzyme inhibition assay (Transcreener ADP2 fluorescence polarization). Type of assay: biochemical. The settings on record: Enzyme activity for compounds of Formula IV; Ki(app), 280 μM ATP, 25° C. Summed up:
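Inhibition of 4 nM GCN2 was measured with compound up to 8 μM final, ATP 280 μM and (RS)7 peptide 200 μM over a 1 h, 25 °C reaction. ADP FP readout; IC50 and Ki(app) calculated from percent inhibition.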

GCN2 kinase, sequence (Q9P2K8 whole entry): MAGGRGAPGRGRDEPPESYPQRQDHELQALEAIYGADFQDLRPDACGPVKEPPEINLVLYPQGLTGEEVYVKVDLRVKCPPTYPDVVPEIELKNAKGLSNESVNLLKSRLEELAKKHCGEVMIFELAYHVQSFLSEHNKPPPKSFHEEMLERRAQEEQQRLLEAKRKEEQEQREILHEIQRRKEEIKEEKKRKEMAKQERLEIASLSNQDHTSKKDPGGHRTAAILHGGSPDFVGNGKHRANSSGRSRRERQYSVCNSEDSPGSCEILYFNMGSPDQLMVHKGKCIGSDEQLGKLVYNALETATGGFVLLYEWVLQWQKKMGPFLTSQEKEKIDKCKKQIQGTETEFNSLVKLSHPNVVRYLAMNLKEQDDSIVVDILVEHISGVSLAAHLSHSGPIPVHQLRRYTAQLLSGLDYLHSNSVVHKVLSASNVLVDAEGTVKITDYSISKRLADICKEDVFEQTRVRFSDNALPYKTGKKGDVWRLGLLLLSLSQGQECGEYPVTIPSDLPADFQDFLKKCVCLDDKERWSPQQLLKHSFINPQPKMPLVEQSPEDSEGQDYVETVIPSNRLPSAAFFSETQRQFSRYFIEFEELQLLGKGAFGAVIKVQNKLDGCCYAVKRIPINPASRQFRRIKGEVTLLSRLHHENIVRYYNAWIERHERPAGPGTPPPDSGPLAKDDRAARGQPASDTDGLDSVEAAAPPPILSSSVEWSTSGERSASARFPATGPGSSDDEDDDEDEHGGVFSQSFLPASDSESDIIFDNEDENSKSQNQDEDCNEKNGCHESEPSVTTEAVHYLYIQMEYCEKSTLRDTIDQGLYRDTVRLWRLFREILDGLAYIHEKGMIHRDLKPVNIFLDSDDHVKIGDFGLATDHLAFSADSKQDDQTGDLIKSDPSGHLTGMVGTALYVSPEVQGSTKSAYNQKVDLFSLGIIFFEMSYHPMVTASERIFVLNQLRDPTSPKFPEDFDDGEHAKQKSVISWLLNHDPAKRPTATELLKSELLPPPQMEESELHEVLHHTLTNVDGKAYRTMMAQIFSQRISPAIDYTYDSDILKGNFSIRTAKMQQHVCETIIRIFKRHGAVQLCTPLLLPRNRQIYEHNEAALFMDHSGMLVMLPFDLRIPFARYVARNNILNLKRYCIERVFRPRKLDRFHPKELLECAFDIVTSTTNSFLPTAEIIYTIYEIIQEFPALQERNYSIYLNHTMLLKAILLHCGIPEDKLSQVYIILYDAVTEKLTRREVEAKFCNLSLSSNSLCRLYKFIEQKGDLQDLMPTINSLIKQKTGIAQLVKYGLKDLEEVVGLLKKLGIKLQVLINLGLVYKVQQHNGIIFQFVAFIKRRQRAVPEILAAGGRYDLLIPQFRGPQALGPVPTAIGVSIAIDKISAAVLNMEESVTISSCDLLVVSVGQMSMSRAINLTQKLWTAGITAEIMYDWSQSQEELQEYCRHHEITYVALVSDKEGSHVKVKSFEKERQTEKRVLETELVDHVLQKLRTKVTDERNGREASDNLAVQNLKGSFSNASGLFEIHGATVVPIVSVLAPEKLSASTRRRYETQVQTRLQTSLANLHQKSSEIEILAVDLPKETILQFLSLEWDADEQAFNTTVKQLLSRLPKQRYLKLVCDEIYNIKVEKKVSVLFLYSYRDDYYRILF
intracellular GCN2 (phosphorylation of the GCN2 substrate eIF2α), sequence (Q9P2K8 whole entry): as above

What is called IC50 is the concentration at which inhibition is half-maximal. Low readings indicate inhibition by little substance, high ones a need for much substance. As to `CN([C@H]1CCN(c2ccnc(-c3cnc4cnc(C(F)F)cn34)n2)C1)S(C)(=O)=O` [IV-125, (S)—N-(1-(2-(6-(Difluoromethyl)imidazo[1,2-a]pyrazin-3-yl)pyrimidin-4-yl)pyrrolidin-3-yl)-N-methylmethanesulfonamide], the IC50 in assay [1] is above 5000 nM. Also, the Ki in assay [2] was in the range of 100 to 1000 nM.
In turn, `CS(=O)(=O)N1C2CCC1CN(c1ccnc(-c3cnc4cnc(C(F)F)cn34)n1)C2` [IV-126, 6-(Difluoromethyl)-3-(4-(8-(methylsulfonyl)-3,8-diazabicyclo[3.2.1]octan-3-yl)pyrimidin-2-yl)imidazo[1,2-a]pyrazine] returned a half-inhibitory concentration (IC50) in assay [1] above 5000 nM. For the same molecule, the Ki in assay [2] was 100 to 1000 nM.
Taken in the same sequence, the figures for `NC(=O)C1COCCN(c2ccnc(-c3cnc4cnc(C(F)F)cn34)n2)C1` (stereo not shown) [IV-128, 4-(2-(6-(Difluoromethyl)imidazo[1,2-a]pyrazin-3-yl)pyrimidin-4-yl)-1,4-oxazepane-6-carboxamide] were above 5000 nM and 100 to 1000 nM.
For `C[C@@H]1CCCN(c2ccnc(-c3cnc4cnc(C(F)F)cn34)n2)C1` [IV-129, (R)-6-(Difluoromethyl)-3-(4-(3-methylpiperidin-1-yl)pyrimidin-2-yl)imidazo[1,2-a]pyrazine], in that order: above 5000 nM and 100 to 1000 nM.
`FC(F)c1cn2c(-c3nccc(N4CCCC5CCCC54)n3)cnc2cn1` (stereo not shown) [IV-130, 6-(Difluoromethyl)-3-(4-(octahydro-1H-cyclopenta[b]pyridin-1-yl)pyrimidin-2-yl)imidazo[1,2-a]pyrazine] returned an IC50 in assay [1] above 5000 nM. Moreover, the Ki in assay [2] lay within 100 to 1000 nM.
For `CC(C)(C)OC(=O)N1CCC2CCN(c3ccnc(-c4cnc5cnc(C(F)F)cn45)n3)CC21` (stereo not shown) [IV-132, tert-Butyl 6-(2-(6-(difluoromethyl)imidazo[1,2-a]pyrazin-3-yl)pyrimidin-4-yl)octahydro-1H-pyrrolo[2,3-c]pyridine-1-carboxylate], in that order: above 5000 nM and 100 to 1000 nM.
The molecule `CC1CCCN(c2ccnc(-c3cnc4cnc(C(F)F)cn34)n2)C1C` (stereo not shown) [IV-134, 6-(Difluoromethyl)-3-(4-(2,3-dimethylpiperidin-1-yl)pyrimidin-2-yl)imidazo[1,2-a]pyrazine] displayed an IC50 in assay [1] above 5000 nM. For the same molecule, the Ki in assay [2] fell in the range of 100 to 1000 nM.
For `FC(F)c1cn2c(-c3nccc(N4CCCC5CC54)n3)cnc2cn1` (stereo not shown) [IV-135, 3-(4-(2-Azabicyclo[4.1.0]heptan-2-yl)pyrimidin-2-yl)-6-(difluoromethyl)imidazo[1,2-a]pyrazine], in that order: above 5000 nM and 100 to 1000 nM.
For `OC[C@H]1CCCCN1c1ccnc(-c2cnc3cnc(C(F)F)cn23)n1` [IV-136, (R)-(1-(2-(6-(Difluoromethyl)imidazo[1,2-a]pyrazin-3-yl)pyrimidin-4-yl)piperidin-2-yl)methanol], in that order: above 5000 nM and 100 to 1000 nM.
Molecule `C[C@H]1CCCN(c2ccnc(-c3cnc4cnc(C(F)F)cn34)n2)C1` [IV-137, (S)-6-(Difluoromethyl)-3-(4-(3-methylpiperidin-1-yl)pyrimidin-2-yl)imidazo[1,2-a]pyrazine] showed an IC50 in assay [1] above 5000 nM. The molecule also yielded a Ki in assay [2] of 100 to 1000 nM.
For `OC[C@@H]1CCCN(c2ccnc(-c3cnc4cnc(C(F)F)cn34)n2)C1` [IV-138, (R)-(1-(2-(6-(Difluoromethyl)imidazo[1,2-a]pyrazin-3-yl)pyrimidin-4-yl)piperidin-3-yl)methanol], in that order: above 5000 nM and 100 to 1000 nM.
Molecule `O=C(C1CCCN(c2ccnc(-c3cnc4cnc(C(F)F)cn34)n2)C1)N1CCNCC1` (stereo not shown) [IV-139, (1-(2-(6-(Difluoromethyl)imidazo[1,2-a]pyrazin-3-yl)pyrimidin-4-yl)piperidin-3-yl)(piperazin-1-yl)methanone] showed an IC50 in assay [1] above 5000 nM. In assay [2], this molecule yielded a Ki of 100 to 1000 nM.
For the molecule `FC(F)c1cn2c(-c3nccc(N4CCC5(CCNCC5)C4)n3)cnc2cn1` [IV-140, 2-(2-(6-(Difluoromethyl)imidazo[1,2-a]pyrazin-3-yl)pyrimidin-4-yl)-2,8-diazaspiro[4.5]decane], the IC50 in assay [1] was above 5000 nM. The Ki in assay [2] lay within 100 to 1000 nM.
Taken in the same sequence, the figures for `CS(C)(=O)=NC1CCCN(c2ccnc(-c3cnc4cnc(C(F)F)cn34)n2)C1` (stereo not shown) [IV-141, ((1-(2-(6-(Difluoromethyl)imidazo[1,2-a]pyrazin-3-yl)pyrimidin-4-yl)piperidin-3-yl)imino)dimethyl-λ^6-sulfanone] were above 5000 nM and 100 to 1000 nM.
Taken in the same sequence, the figures for `OC[C@H]1CCCN(c2ccnc(-c3cnc4cnc(C(F)F)cn34)n2)C1` [IV-142, (S)-(1-(2-(6-(Difluoromethyl)imidazo[1,2-a]pyrazin-3-yl)pyrimidin-4-yl)piperidin-3-yl)methanol] were above 5000 nM and 100 to 1000 nM.
For `NCC1CCCN(c2ccnc(-c3cnc4cnc(C(F)F)cn34)n2)C1` (stereo not shown) [IV-143, (1-(2-(6-(Difluoromethyl)imidazo[1,2-a]pyrazin-3-yl)pyrimidin-4-yl)piperidin-3-yl)methanamine], in that order: above 5000 nM and 100 to 1000 nM.
In turn, `CS(=O)(=O)N1CCC2CCN(c3ccnc(-c4cnc5cnc(C(F)F)cn45)n3)CC21` (stereo not shown) [IV-144, 6-(Difluoromethyl)-3-(4-(1-(methylsulfonyl)octahydro-6H-pyrrolo[2,3-a]pyridin-6-yl)pyrimidin-2-yl)imidazo[1,2-a]pyrazine] had an IC50 in assay [1] of 500 to 5000 nM. The same molecule registered a Ki in assay [2] of 100 to 1000 nM.
In assay [1], `CS(=O)(=O)N1CCC2(CCN(c3ccnc(-c4cnc5cnc(C(F)F)cn45)n3)C2)CC1` [IV-145, 2-(2-(6-(Difluoromethyl)imidazo[1,2-a]pyrazin-3-yl)pyrimidin-4-yl)-8-(methylsulfonyl)-2,8-diazaspiro[4.5]decane] returned a half-inhibitory concentration (IC50) above 5000 nM. In assay [2], the Ki lay in the range of 100 to 1000 nM.
For `CS(=O)(=O)NCc1cccc(-c2ccnc(-c3cnc4cnc(C(F)F)cn34)n2)c1` [IV-146, N-(3-(2-(6-(Difluoromethyl)imidazo[1,2-a]pyrazin-3-yl)pyrimidin-4-yl)benzyl)methanesulfonamide], in that order: above 5000 nM and 100 to 1000 nM.
`CS(=O)(=O)Nc1cccc(-c2ccnc(-c3cnc4cnc(C(F)F)cn34)n2)c1` [IV-147, N-(3-(2-(6-(Difluoromethyl)imidazo[1,2-a]pyrazin-3-yl)pyrimidin-4-yl)phenyl)methanesulfonamide] came in with an IC50 in assay [1] above 5000 nM. This molecule also yielded a Ki in assay [2] of 100 to 1000 nM.
Taken in the same sequence, the figures for `NCS(=O)(=O)c1cccc(-c2ccnc(-c3cnc4cnc(C(F)F)cn34)n2)c1` [IV-148, ((3-(2-(6-(Difluoromethyl)imidazo[1,2-a]pyrazin-3-yl)pyrimidin-4-yl)phenyl)sulfonyl)methanamine] were above 5000 nM and 100 to 1000 nM.
As to `O=C(c1cccc(-c2ccnc(-c3cnc4cnc(C(F)F)cn34)n2)c1)N1CCNCC1` [IV-150, (3-(2-(6-(Difluoromethyl)imidazo[1,2-a]pyrazin-3-yl)pyrimidin-4-yl)phenyl)(piperazin-1-yl)methanone], the IC50 in assay [1] is above 5000 nM. Besides, the Ki in assay [2] was in the range of 100 to 1000 nM.
Taken in the same sequence, the figures for `CS(=O)(=O)NCC1CCCN(c2ccnc(-c3cnc4cnc(C(F)F)cn34)n2)C1` (stereo not shown) [IV-152, N-((1-(2-(6-(Difluoromethyl)imidazo[1,2-a]pyrazin-3-yl)pyrimidin-4-yl)piperidin-3-yl)methyl)methanesulfonamide] were above 5000 nM and 100 to 1000 nM.
